Source: US11077199B2, “Albumin binding peptide conjugates and methods thereof” (Massachusetts Institute of Technology, priority 2017, dated 2021)

How the values were obtained:
[1] = system: CD44hi H-2Db gp100 tetramer+ CD8+ T cells; test: Immunization with ABP-antigen constructs, tetramer staining of peripheral blood; type: in vivo, C57BL6/J mice; settings: for percentage CD44hi tetramer+ of total live CD8+ T cells: 5 nmol with 25 ug c-di-GMP adjuvant, prime day 0, boost day 14, peripheral blood day 21, mean response
Excerpt: To test whether these albumin-binding peptides could enhance vaccination, a model melanoma antigen called gp100 was utilized. Vaccination against gp100 has shown significant preclinical activity (van Stipdonk, M. J. B. et al. Design of agonistic altered peptides for the robust induction of CTL directed towards H-2Db in complex with the melanoma-associated epitope gp100. Cancer research 69, 7784-7792, doi:10.1158/0008-5472.CAN-09-1724 (2009)) and has also been used clinically (Schwartzentruber, D. J. et al. gp100 Peptide Vaccine and Interleukin-2 in Patients with Advanced Melanoma. New England Journal of Medicine 364, 2119-2127, doi:10.1056/NEJMoa1012863 (2011)). An altered peptide ligand form of gp100 called EGP (sequence
To test the immunogenicity of ABP-modified peptides, C57BL6/J mice (Jackson Laboratories) were immunized with 5 nmol either ABP-G4S-EGP, ABP-PEG2000-EGP, or unmodified EGP peptide. Vaccines were formulated with 25 ug c-di-GMP (Invivogen) for adjuvant in 100 uL total volume (with sterile saline as diluent). Mice were primed on day 0, boosted on day 14, and tetramer staining was performed on day 21 to assess T cell priming in peripheral blood. (FIG. 5). Briefly, blood was isolated retro-orbitally, subjected to lysis to remove red blood cells, and incubated with tetramer (H-2Db gp100, MBL) at room temperature for 30 minutes, followed by surface staining for CD8 and CD44. DAPI was included as a viability marker, and cells were run on the LSR Fortessa (BD Biosciences). Responses were quantified as the percentage CD44^hi tetramer+ of total live CD8+ T cells. […] (FIG. 6).

[2] = target: T1, MHC (H2-Db) (Mus musculus, UniProt P01899); settings: H2-Db epitope; van Stipdonk et al. 2009; cited from earlier work
T1 sequence (P01899 25-362): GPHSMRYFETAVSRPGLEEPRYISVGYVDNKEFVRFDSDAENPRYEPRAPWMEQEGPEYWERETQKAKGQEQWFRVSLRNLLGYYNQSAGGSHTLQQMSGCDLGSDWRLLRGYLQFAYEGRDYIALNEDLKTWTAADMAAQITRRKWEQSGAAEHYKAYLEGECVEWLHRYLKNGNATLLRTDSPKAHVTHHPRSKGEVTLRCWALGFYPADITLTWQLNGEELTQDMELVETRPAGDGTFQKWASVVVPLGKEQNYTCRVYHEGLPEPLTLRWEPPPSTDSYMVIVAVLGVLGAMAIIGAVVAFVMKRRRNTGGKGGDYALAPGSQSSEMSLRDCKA
T1 sequence (P01887 21-119 partner): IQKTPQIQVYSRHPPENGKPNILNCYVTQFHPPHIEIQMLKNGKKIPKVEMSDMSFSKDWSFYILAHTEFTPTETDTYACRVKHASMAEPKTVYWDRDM

Sequence | percentage CD44hi tetramer+ of total live CD8+ T cells [1] [%] | fold higher response than unmodified peptide ([1]; CD44hi tetramer+ of live CD8+ T cells, day 21, relative to unmodified EGP peptide) | response compared with background in unimmunized mice ([1]; day 21 tetramer staining, background 0.82%) | affinity for MHC relative to native form (EGS) [2]
DICLPRWGCLWGGGGSAVGALEGPRNQDWLGVPRQL [ABP-G4S-EGP] | 5.56 | approximately 4 fold |  | 
AVGALEGPRNQDWLGVPRQL (Synthetic EGP long peptide) [unmodified EGP peptide, altered peptide ligand form of melanoma antigen gp100] | 1.45 |  | not statistically different from background | enhanced affinity for MHC over the native form
